Measurements from patent publication US20070197590A1, “SUBSTITUTED DIPIPERIDINE CCR2 ANTAGONISTS” (priority 2006, published 2007).

Tests used:
[1] = tested on: MCP-1 induced chemotaxis of THP-1 cells; assay: MCP-1 Induced Chemotaxis in THP-1 Cells; assay type: cell-based; details: Homo sapiens, MCP-1 0.01 μg/mL, 3 hours at 37° C., read-out: Inhibition of MCP-1 Induced Chemotaxis IC50
Protocol: MCP-1 induced chemotaxis was run in a 24-well chemotaxis chamber. MCP-1 (0.01 μg/mL) was added to the lower chamber and 100 μL of THP-1 cells (1×10^7 cell/mL) was added to the top chamber. Varying concentrations of test compound were added to the top and bottom chambers. Cells were allowed to chemotax for 3 hours at 37° C. and 5% CO2. An aliquot of the cells that had migrated to the bottom chamber was taken and counted then compared to vehicle.
Table 3 lists IC50 values for inhibition of MCP-1 induced chemotaxis.

CCR2 = target: T1, CCR2 (Homo sapiens, UniProt P41597); assay: MCP-1 Receptor Binding Assay in THP-1 Cells; details: THP-1 cells, 0.5 nM 125I labeled MCP-1, 2 hours at 30° C.; read-out: Inhibition of MCP-1 Binding IC50
T1 construct: host or cells: THP-1 cells
T1 sequence (P41597 1-360 isoform P41597-2): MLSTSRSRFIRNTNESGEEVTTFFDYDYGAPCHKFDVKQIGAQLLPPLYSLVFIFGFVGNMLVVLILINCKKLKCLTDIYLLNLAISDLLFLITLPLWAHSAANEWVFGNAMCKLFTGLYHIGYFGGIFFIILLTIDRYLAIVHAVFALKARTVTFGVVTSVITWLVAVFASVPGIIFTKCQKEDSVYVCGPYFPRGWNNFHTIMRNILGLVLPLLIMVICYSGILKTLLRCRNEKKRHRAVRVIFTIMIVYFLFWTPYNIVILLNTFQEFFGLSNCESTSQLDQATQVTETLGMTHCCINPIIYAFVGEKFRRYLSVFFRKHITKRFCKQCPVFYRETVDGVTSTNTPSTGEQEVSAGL
Outline: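 Whole THP-1 cells incubated 2 h at 30° C with 0.5 nM 125I-MCP-1 and varying compound concentrations; bound radioactivity harvested on filters and counted by scintillation. Nonspecific binding with 1 μM cold MCP-1; IC50 for inhibition of binding versus vehicle.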

[2] = tested on: MCP-1 induced calcium ion influx in THP-1 cells; assay: MCP-1 Induced Calcium Mobilization in THP-1 Cells; assay type: cell-based; details: Homo sapiens, THP-1, THP-1 cells, 0.2 μM MCP-1, FLIPR; read-out: Inhibition of MCP-1 Induced Calcium Ion Influx IC50
Protocol: THP-1 cells were plated at a density of 8×10^5 cells/mL (100 μL/well) into poly-D lysine coated clear bottom, black 96 well plates. The cells were loaded with 5 μM fluo-3 for 45 minutes. The fluo-3 washed off and cells were incubated with varying concentrations of test compound for 15 minutes. The change in calcium ion concentration upon addition of 0.2 μM MCP-1 was determined using FLIPR and compared to vehicle.
Table 2 lists IC50 values for inhibition of MCP-1 induced influx of calcium ions.

| IC50 [1] [nM] | IC50 (CCR2) [nM] | IC50 [2] [nM] | SMILES |
| --- | --- | --- | --- |
| 4 | 30 | 20 | O=C(Nc1ccc(Cl)c(Cl)c1)N1CCC(C(O)CN2CCC(c3c[nH]c4ccccc34)CC2)CC1 (stereo not drawn) [Compound 4, 4-{1-hydroxy-2-[4-(1H-indol-3-yl)-piperidin-1-yl]-ethyl}-piperidine-1-carboxylic acid (3,4-dichloro-phenyl)-amide] |
| 120 | 160 | 80 | O=C(Nc1cc(F)cc(F)c1)N1CCC(C(O)CN2CCC(c3c[nH]c4ccccc34)CC2)CC1 (stereo not drawn) [Compound 5, 4-{1-hydroxy-2-[4-(1H-indol-3-yl)-piperidin-1-yl]-ethyl}-piperidine-1-carboxylic acid (3,5-difluoro-phenyl)-amide] |
| 20 | 40 | 7 | O=C(/C=C/c1ccc(Cl)c(Cl)c1)N1CCC(C(O)CN2CCC(c3c[nH]c4ccccc34)CC2)CC1 (stereo not drawn) [Compound 6] |
| 30 | 30 | 7 | O=C(/C=C/c1cc(F)cc(F)c1)N1CCC(C(O)CN2CCC(c3c[nH]c4ccccc34)CC2)CC1 (stereo not drawn) [Compound 7] |
| 20 | 50 | 120 | OC(CN1CCC(c2c[nH]c3ccccc23)CC1)C1CCN(C(=S)Nc2cccc(Br)c2)CC1 (stereo not drawn) [Compound 9, 4-{1-hydroxy-2-[4-(1H-indol-3-yl)-piperidin-1-yl]-ethyl}-piperidine-1-carbothioic acid (3-bromo-phenyl)-amide] |
| 270 | 150 | 400 | N=C(NC(=O)c1cc(F)cc(F)c1)N1CCC(C(O)CN2CCC(c3c[nH]c4ccccc34)CC2)CC1 (stereo not drawn) [Compound 10, 3,5-difluoro-N-[(4-{1-hydroxy-2-[4-(1H-indol-3-yl)-piperidin-1-yl]-ethyl}-piperidin-1-yl)-imino-methyl]-benzamide] |
| 190 | 10 | 350 | Cc1cccc(/C=C/C(=O)N2CCC(C(O)CN3CCC(c4c[nH]c5ccccc45)CC3)CC2)c1 (stereo not drawn) [Compound 11] |
| 7 | 20 | 650 | COc1ccc(C2CCN(CC(O)C3CCN(C(=O)/C=C/c4cc(F)cc(F)c4)CC3)CC2)cc1 (stereo not drawn) [Compound 12] |
| 60 | 10 | 240 | COc1ccc(C2CCN(CC(O)C3CCN(C(=O)/C=C/c4cc(F)c(F)c(F)c4)CC3)CC2)cc1 (stereo not drawn) [Compound 13] |
| 150 | 140 | 3 | COc1ccc(C2CCN(CC(O)C3CCN(C(=O)/C=C/c4ccc(Cl)c(Cl)c4)CC3)CC2)cc1 (stereo not drawn) [Compound 14] |
| 20 | 30 | 110 | COc1ccc(C2CCN(CC(O)C3CCN(C(=O)Nc4ccc(Cl)c(Cl)c4)CC3)CC2)cc1 (stereo not drawn) [Compound 15, 4-{1-hydroxy-2-[4-(4-methoxy-phenyl)-piperidin-1-yl]-ethyl}-piperidine-1-carboxylic acid (3,4-dichloro-phenyl)-amide] |
| 300 | 130 | 980 | COc1ccc(C2CCN(CC(O)C3CCN(C(=S)Nc4cccc(Br)c4)CC3)CC2)cc1 (stereo not drawn) [Compound 16, 4-{1-hydroxy-2-[4-(4-methoxy-phenyl)-piperidin-1-yl]-ethyl}-piperidine-1-carbothioic acid (3-bromo-phenyl)-amide] |
| 420 | 680 | 1700 | CS(=O)(=O)Nc1ccc2[nH]cc(C3CCN(CC(=O)C4CCN(C(=O)C=Cc5cc(F)c(F)c(F)c5)CC4)CC3)c2c1 [Compound 18, N-{3-[1-(2-oxo-2-{1-[3-(3,4,5-trifluoro-phenyl)-acryloyl]-piperidin-4-yl}-ethyl)-piperidin-4-yl]-1H-indol-5-yl}-methanesulfonamide] |
| 190 | 130 | 30 | Cc1cccc(/C=C/C(=O)N2CCC(C(O)CN3CCC(c4c[nH]c5ncccc45)CC3)CC2)c1 (stereo not drawn) [Compound 19] |
| 20 | 50 | 230 | O=C(/C=C/c1cc(F)cc(F)c1)N1CCC(C(O)CN2CCC(c3c[nH]c4ncccc34)CC2)CC1 (stereo not drawn) [Compound 20] |
| 20 | 50 | 480 | O=C(/C=C/c1cc(F)c(F)c(F)c1)N1CCC(C(O)CN2CCC(c3c[nH]c4ncccc34)CC2)CC1 (stereo not drawn) [Compound 21] |

| IC50 [1] [nM] | IC50 (CCR2) [nM] | IC50 [2] [nM] | SMILES |
| --- | --- | --- | --- |
| 360 | 190 | 30 | O=C(/C=C/c1cccc(C(F)(F)F)c1)N1CCC(C(O)CN2CCC(c3c[nH]c4ncccc34)CC2)CC1 (stereo not drawn) [Compound 22] |
| 20 | 20 | 7 | O=C(/C=C/c1ccc(Cl)c(Cl)c1)N1CCC(C(O)CN2CCC(c3c[nH]c4ncccc34)CC2)CC1 (stereo not drawn) [Compound 23] |
| 70 | 70 | 120 | O=C(Nc1ccc(Cl)c(Cl)c1)N1CCC(C(O)CN2CCC(c3c[nH]c4ncccc34)CC2)CC1 (stereo not drawn) [Compound 24, 4-{1-hydroxy-2-[4-(1H-pyrrolo[2,3-b]pyridin-3-yl)-piperidin-1-yl]-ethyl}-piperidine-1-carboxylic acid (3,4-dichloro-phenyl)-amide] |
| 640 | 810 | 1500 | CSc1ccc(NC(=O)N2CCC(C(O)CN3CCC(c4c[nH]c5ncccc45)CC3)CC2)cc1 (stereo not drawn) [Compound 25, 4-{1-hydroxy-2-[4-(1H-pyrrolo[2,3-b]pyridin-3-yl)-piperidin-1-yl]-ethyl}-piperidine-1-carboxylic acid (4-methylsulfanyl-phenyl)-amide] |
| 20 | 70 | 370 | COc1ccc2[nH]cc(C3CCN(CC(O)C4CCN(C(=O)/C=C/c5cc(F)cc(F)c5)CC4)CC3)c2c1 (stereo not drawn) [Compound 26] |
| 10 | 10 | 8 | CS(=O)(=O)Nc1ccc2[nH]cc(C3CCN(CC(O)C4CCN(C(=O)/C=C/c5cc(F)c(F)c(F)c5)CC4)CC3)c2c1 (stereo not drawn) [Compound 27] |
| 370 | 250 | 310 | CS(=O)(=O)Nc1ccc2[nH]cc(C3CCN(CC(N)C4CCN(C(=O)C=Cc5cc(F)c(F)c(F)c5)CC4)CC3)c2c1 (stereo not drawn) [Compound 28, N-{3-[1-(2-amino-2-{1-[3-(3,4,5-trifluoro-phenyl)-acryloyl]-piperidin-4-yl}-ethyl)-piperidin-4-yl]-1H-indol-5-yl}-methanesulfonamide] |
| 70 | 70 | 90 | COc1ccc(C2CCN(CC(O)C3CCN(C(=O)/C=C/c4cccc(C)c4)CC3)CC2)cc1 (stereo not drawn) [Compound 29] |
| 60 | 50 | 220 | COc1ccc(C2CCN(CC(O)C3CCN(C(=O)/C=C/c4cccc(C(F)(F)F)c4)CC3)CC2)cc1 (stereo not drawn) [Compound 30] |
| 100 | 70 | 80 | COc1ccc(C2CCN(CC(O)C3CCN(C(=O)/C=C/c4ccc(F)c(F)c4)CC3)CC2)cc1 (stereo not drawn) [Compound 32] |
| 840 | 570 | 10900 | O=C(/C=C/c1cc(F)cc(F)c1)N1CCC(C(O)CN2CCC(c3cc[nH]n3)CC2)CC1 (stereo not drawn) [Compound 34] |
| 30 | 80 | 170 | Cc1cccc(C=CC(=O)N2CCC(C(O)CN3CCC(c4c[nH]c5ccc(NS(C)(=O)=O)cc45)CC3)CC2)c1 (stereo not drawn) [Compound 40, N-[3-(1-{2-hydroxy-2-[1-(3-m-tolyl-acryloyl)-piperidin-4-yl]-ethyl}-piperidin-4-yl)-1H-indol-5-yl]-methanesulfonamide] |
| 20 | 40 | 90 | CS(=O)(=O)Nc1ccc2[nH]cc(C3CCN(CC(O)C4CCN(C(=O)C=Cc5cc(F)cc(F)c5)CC4)CC3)c2c1 (stereo not drawn) [Compound 41, N-{3-[1-(2-{1-[3-(3,5-difluoro-phenyl)-acryloyl]-piperidin-4-yl}-2-hydroxy-ethyl)-piperidin-4-yl]-1H-indol-5-yl}-methanesulfonamide] |
| 90 | 590 | 180 | COc1ccc(C2CCN(CC(CO)C3CCN(C(=O)/C=C/c4ccc(Cl)c(Cl)c4)CC3)CC2)cc1 (stereo not drawn) [Compound 43] |
| 170 | 120 | 150 | COc1ccc(C2CCN(CC(CO)C3CCN(C(=O)/C=C/c4cc(F)cc(F)c4)CC3)CC2)cc1 (stereo not drawn) [Compound 45] |
